# Measured values published in paper doi:10.1101/2020.06.11.145995v1 (biorxiv, 2020).
# Read-outs that look alike come from different tables or passages of the source.
# Legend:
# Experiment in all cases: biochemical
# [1] = molecular target: NDR2 (Homo sapiens, UniProt Q9Y2H1)
# [2] = molecular target: NEK4 (Homo sapiens, UniProt P51957)
# [3] = molecular target: NEK7 (Homo sapiens, UniProt Q8TDX7)
# [4] = molecular target: NLK (Homo sapiens, UniProt Q9UBE8)
# [5] = molecular target: PAK2 (Homo sapiens, UniProt Q13177)
# [6] = molecular target: PCTK1 (Homo sapiens, UniProt Q00536)
# [7] = molecular target: PIK3CA(C420R) (Homo sapiens, UniProt P42336, C420R)
# [8] = molecular target: PIK3CA(E545K) (Homo sapiens, UniProt P42336, E545K)
# [9] = molecular target: PIK3CA(H1047Y (Homo sapiens, UniProt P42336, H1047Y))
# [10] = molecular target: PLK3 (Homo sapiens, UniProt Q9H4B4)
# [11] = molecular target: PRKCE (Homo sapiens, UniProt Q02156)
# [12] = molecular target: PYK2 (Homo sapiens, UniProt Q14289)
# [13] = molecular target: RIOK2 (Homo sapiens, UniProt Q9BVS4)
# [14] = molecular target: RIPK5 (Homo sapiens, UniProt Q6XUX3)
# [15] = molecular target: ROS1 (Homo sapiens, UniProt P08922)
# [16] = molecular target: SNRK (Homo sapiens, UniProt Q9NRH2)
# [17] = molecular target: SRC (Homo sapiens, UniProt P12931)
# [18] = molecular target: SRMS (Homo sapiens, UniProt Q9H3Y6)
# [19] = molecular target: SRPK2 (Homo sapiens, UniProt P78362)
# Sequence of SRPK2 (P78362 whole entry): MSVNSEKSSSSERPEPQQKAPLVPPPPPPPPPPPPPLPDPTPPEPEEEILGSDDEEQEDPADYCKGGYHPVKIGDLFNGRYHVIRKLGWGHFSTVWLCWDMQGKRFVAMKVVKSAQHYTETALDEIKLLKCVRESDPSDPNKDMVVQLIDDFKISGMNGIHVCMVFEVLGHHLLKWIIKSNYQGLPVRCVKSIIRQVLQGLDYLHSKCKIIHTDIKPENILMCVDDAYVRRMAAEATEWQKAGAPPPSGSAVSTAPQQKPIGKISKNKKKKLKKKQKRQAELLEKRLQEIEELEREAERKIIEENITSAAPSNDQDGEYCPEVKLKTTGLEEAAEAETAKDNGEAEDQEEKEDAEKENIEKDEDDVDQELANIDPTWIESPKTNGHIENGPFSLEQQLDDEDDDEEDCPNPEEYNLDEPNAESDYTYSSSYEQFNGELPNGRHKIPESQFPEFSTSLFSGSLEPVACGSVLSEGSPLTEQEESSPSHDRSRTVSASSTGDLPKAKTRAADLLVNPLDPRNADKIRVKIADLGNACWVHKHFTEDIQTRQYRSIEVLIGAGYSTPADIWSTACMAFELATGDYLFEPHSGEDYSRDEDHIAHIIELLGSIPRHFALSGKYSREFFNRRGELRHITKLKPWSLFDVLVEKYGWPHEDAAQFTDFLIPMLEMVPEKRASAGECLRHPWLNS
# [20] = molecular target: SgK110 (Homo sapiens, UniProt P0C264)
# [21] = molecular target: TAOK3 (Homo sapiens, UniProt Q9H2K8)
# Sequence of TAOK3 (Q9H2K8 whole entry): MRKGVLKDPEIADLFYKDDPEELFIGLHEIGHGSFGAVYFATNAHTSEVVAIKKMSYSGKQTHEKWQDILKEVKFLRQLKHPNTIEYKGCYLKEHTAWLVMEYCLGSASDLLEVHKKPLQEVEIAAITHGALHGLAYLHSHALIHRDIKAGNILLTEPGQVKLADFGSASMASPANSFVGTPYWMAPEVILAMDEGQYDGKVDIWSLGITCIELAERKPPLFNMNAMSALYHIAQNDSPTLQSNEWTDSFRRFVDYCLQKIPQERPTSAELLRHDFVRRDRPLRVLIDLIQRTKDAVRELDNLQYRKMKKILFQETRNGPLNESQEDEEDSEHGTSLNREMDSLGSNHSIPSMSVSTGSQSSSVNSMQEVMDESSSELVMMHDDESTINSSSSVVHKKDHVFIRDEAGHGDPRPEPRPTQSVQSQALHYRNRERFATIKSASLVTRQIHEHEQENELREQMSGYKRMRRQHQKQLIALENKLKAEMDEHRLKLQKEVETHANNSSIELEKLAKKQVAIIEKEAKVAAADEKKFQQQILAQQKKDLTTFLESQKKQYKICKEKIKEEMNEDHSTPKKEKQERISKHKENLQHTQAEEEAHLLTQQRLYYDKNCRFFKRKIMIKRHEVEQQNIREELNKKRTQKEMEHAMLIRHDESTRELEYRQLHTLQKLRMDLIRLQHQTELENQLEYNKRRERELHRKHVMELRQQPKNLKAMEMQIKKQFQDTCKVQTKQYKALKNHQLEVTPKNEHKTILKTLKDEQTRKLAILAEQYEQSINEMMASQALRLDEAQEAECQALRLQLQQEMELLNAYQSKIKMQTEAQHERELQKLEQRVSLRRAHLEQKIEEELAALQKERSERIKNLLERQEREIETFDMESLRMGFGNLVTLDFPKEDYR
# [22] = molecular target: TESK1 (Homo sapiens, UniProt Q15569)
# [23] = molecular target: TGFBR1 (Homo sapiens, UniProt P36897)
# [24] = molecular target: TNIK (Homo sapiens, UniProt Q9UKE5)
# [25] = molecular target: TRKA (Homo sapiens, UniProt P04629)
# Sequence of TRKA (P04629 whole entry): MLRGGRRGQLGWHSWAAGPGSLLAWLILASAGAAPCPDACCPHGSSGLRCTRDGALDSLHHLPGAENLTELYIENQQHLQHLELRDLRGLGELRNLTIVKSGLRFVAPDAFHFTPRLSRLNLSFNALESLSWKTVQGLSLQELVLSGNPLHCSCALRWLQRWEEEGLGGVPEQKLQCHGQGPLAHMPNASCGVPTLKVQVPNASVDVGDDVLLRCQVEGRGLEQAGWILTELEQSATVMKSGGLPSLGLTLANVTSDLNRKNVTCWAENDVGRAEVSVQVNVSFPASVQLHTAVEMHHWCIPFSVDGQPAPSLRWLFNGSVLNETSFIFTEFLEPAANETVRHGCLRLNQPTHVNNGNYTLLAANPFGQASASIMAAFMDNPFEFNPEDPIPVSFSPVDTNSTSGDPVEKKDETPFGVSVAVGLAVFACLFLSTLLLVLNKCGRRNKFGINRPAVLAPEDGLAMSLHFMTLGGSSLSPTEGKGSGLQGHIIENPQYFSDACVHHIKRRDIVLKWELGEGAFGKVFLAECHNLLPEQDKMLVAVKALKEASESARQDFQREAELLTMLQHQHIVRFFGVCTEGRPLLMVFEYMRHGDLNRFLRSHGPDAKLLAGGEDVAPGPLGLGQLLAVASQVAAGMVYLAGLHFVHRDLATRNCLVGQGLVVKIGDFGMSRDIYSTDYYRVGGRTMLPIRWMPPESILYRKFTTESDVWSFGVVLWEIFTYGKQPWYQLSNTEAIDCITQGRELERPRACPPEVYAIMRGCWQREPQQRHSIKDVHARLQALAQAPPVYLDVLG
# [26] = molecular target: TSSK1B (Homo sapiens, UniProt Q9BXA7)
# Sequence of TSSK1B (Q9BXA7 whole entry): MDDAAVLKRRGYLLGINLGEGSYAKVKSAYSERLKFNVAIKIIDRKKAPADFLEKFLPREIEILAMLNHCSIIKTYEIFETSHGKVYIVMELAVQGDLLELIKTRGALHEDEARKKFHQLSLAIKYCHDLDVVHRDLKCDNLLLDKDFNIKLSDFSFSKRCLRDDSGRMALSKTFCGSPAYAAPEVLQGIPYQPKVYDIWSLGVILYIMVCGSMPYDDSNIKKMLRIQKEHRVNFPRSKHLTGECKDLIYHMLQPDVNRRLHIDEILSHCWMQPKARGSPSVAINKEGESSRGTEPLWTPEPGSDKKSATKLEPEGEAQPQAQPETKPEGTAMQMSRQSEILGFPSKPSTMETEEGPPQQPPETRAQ
# [27] = molecular target: ULK1 (Homo sapiens, UniProt O75385)
# [28] = molecular target: ULK3 (Homo sapiens, UniProt Q6PHR2)
# [29] = molecular target: WEE1 (Homo sapiens, UniProt P30291)
# Sequence of WEE1 (P30291 whole entry): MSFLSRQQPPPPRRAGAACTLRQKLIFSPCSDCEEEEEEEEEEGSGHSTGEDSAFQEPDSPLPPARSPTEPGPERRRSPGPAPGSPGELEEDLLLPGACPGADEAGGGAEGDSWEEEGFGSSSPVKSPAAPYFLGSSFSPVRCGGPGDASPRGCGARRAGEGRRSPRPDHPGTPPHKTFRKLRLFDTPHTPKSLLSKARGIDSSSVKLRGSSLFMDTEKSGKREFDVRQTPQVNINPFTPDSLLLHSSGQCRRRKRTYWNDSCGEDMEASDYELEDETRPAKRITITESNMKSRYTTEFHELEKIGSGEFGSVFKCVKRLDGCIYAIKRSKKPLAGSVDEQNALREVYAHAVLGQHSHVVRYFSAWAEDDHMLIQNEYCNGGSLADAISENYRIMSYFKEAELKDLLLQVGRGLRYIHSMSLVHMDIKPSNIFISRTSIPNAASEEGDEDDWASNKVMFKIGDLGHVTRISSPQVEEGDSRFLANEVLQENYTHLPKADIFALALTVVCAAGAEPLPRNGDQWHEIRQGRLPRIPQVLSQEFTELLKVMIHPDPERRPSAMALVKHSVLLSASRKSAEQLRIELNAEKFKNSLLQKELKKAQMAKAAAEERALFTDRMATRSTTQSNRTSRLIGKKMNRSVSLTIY
# [30] = molecular target: YSK1 (Homo sapiens, UniProt O00506)
# Sequence of YSK1 (O00506 whole entry): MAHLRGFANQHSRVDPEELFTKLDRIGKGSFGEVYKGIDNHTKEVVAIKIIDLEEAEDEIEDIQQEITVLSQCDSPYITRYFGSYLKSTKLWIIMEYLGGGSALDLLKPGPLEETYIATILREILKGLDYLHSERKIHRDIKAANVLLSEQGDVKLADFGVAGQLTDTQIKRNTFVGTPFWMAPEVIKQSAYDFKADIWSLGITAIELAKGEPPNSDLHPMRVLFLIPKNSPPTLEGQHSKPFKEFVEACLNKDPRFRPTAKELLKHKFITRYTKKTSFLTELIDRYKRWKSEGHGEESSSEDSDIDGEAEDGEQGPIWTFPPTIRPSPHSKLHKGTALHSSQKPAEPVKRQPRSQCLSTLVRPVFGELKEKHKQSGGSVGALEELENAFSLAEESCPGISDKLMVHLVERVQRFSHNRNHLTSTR
# [31] = read-out: CPT-1-70-1 (1μM) % control
# [32] = read-out: HYJ-2-002-1 (1μM) % control
# Sequence of NEK4 (P51957 whole entry): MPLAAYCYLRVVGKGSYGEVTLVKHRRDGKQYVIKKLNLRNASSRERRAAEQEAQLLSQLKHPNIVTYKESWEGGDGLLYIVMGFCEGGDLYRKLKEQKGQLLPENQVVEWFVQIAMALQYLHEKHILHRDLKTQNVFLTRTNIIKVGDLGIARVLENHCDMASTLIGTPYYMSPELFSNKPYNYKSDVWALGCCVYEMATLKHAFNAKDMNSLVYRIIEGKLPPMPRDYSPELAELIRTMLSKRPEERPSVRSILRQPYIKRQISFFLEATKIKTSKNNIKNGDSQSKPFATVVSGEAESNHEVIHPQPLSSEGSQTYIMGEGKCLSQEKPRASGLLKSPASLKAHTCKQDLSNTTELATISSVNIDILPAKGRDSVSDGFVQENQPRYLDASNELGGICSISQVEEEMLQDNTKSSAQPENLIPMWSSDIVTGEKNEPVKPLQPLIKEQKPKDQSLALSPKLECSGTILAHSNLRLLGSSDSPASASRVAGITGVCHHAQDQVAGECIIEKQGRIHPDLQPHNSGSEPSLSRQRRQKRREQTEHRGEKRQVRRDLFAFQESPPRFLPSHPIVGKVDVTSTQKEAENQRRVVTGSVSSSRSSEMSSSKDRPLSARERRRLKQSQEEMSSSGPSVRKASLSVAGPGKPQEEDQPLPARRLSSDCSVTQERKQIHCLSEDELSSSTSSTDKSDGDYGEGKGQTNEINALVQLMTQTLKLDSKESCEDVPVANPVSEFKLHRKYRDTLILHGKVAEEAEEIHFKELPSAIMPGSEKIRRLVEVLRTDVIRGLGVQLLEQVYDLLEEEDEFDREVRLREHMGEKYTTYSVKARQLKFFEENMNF
# Sequence of NEK7 (Q8TDX7 whole entry): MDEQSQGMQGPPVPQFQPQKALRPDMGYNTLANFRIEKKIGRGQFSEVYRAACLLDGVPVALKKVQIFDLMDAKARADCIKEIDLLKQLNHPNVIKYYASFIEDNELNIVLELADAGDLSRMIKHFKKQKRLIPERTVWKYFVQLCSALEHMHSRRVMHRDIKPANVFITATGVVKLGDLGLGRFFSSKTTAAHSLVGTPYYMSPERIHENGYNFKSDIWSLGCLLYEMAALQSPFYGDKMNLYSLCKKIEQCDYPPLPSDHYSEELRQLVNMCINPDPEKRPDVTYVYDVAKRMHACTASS
structure (smiles),measurement,setting,value
CN1CCN(c2ccc(Nc3nc(Oc4ccc(NC(=O)CCl)cc4)c4cc[nH]c4n3)cc2)CC1 [CPT1-70-1],remaining activity at 1 µM,[1]; [31],61%
same,remaining activity at 1 µM,[2]; [31],100%
same,remaining activity at 1 µM,[3]; [31],100%
same,remaining activity at 1 µM,[4]; [31],100%
same,remaining activity at 1 µM,[5]; [31],64%
same,remaining activity at 1 µM,[6]; [31],100%
same,remaining activity at 1 µM,[7]; [31],100%
same,remaining activity at 1 µM,[8]; [31],84%
same,remaining activity at 1 µM,[9]; [31],100%
same,remaining activity at 1 µM,[10]; [31],100%
same,remaining activity at 1 µM,[11]; [31],63%
same,remaining activity at 1 µM,[12]; [31],66%
same,remaining activity at 1 µM,[13]; [31],5.2%
same,remaining activity at 1 µM,[14]; [31],33%
same,remaining activity at 1 µM,[15]; [31],100%
same,remaining activity at 1 µM,[16]; [31],55%
same,remaining activity at 1 µM,[17]; [31],6.6%
same,remaining activity at 1 µM,[18]; [31],100%
same,remaining activity at 1 µM,[19]; [31],98%
same,remaining activity at 1 µM,[20]; [31],100%
same,remaining activity at 1 µM,[21]; [31],71%
same,remaining activity at 1 µM,[22]; [31],83%
same,remaining activity at 1 µM,[23]; [31],100%
same,remaining activity at 1 µM,[24]; [31],20%
same,remaining activity at 1 µM,[25]; [31],30%
same,remaining activity at 1 µM,[26]; [31],25%
same,remaining activity at 1 µM,[27]; [31],32%
same,remaining activity at 1 µM,[28]; [31],19%
same,remaining activity at 1 µM,[29]; [31],88%
same,remaining activity at 1 µM,[30]; [31],89%
CCN1CCN(Cc2ccc(NC(=O)c3ccc(C)c(CCc4cnc5[nH]ccc5c4OC)c3)cc2C(F)(F)F)CC1 [HYJ-2-002-1],remaining activity at 1 µM,[1]; [32],100%
same,remaining activity at 1 µM,[2]; [32],57%
same,remaining activity at 1 µM,[3]; [32],100%
same,remaining activity at 1 µM,[4]; [32],28%
same,remaining activity at 1 µM,[5]; [32],99%
same,remaining activity at 1 µM,[6]; [32],100%
same,remaining activity at 1 µM,[7]; [32],100%
same,remaining activity at 1 µM,[8]; [32],100%
same,remaining activity at 1 µM,[9]; [32],100%
same,remaining activity at 1 µM,[10]; [32],100%
same,remaining activity at 1 µM,[11]; [32],100%
same,remaining activity at 1 µM,[12]; [32],21%
same,remaining activity at 1 µM,[13]; [32],35%
same,remaining activity at 1 µM,[14]; [32],86%
same,remaining activity at 1 µM,[15]; [32],100%
same,remaining activity at 1 µM,[16]; [32],100%
same,remaining activity at 1 µM,[17]; [32],0.2%
same,remaining activity at 1 µM,[18]; [32],8.4%
same,remaining activity at 1 µM,[19]; [32],100%
same,remaining activity at 1 µM,[20]; [32],96%
same,remaining activity at 1 µM,[21]; [32],0.45%
same,remaining activity at 1 µM,[22]; [32],81%
same,remaining activity at 1 µM,[23]; [32],100%
same,remaining activity at 1 µM,[24]; [32],11%
same,remaining activity at 1 µM,[25]; [32],6.6%
same,remaining activity at 1 µM,[26]; [32],100%
same,remaining activity at 1 µM,[27]; [32],89%
same,remaining activity at 1 µM,[28]; [32],53%
same,remaining activity at 1 µM,[29]; [32],100%
same,remaining activity at 1 µM,[30]; [32],87%
